Here are results for seven compounds from EP4029374A1, “NITROGEN CONTAINING SURFACTANTS FOR AGRICULTURAL USE” (Nouryon Chemicals International B.V., priority 2021, dated 2022).

Series [1] has as its system wheat. Put plainly: Glyphosate formulation trial on wheat (Example 5). The format is in vivo. To be noted: 168 g ae/ha; glyphosate to surfactant ratio 3 : 1; picture taken at 21DAT (FIG. 13). The source says: Cocoamine-6EO betaine was compared in the same trial with tallowamine-15EO as the positive control and the surfactant-free sample as negative control in glyphosate formulations. Glyphosate to surfactant ratio was 3 : 1.
This can be seen from the picture at FIG. 13, taken at 21DAT.

A short description of series [2]: Solubility of prior art betaine surfactants in concentrated glyphosate salt compositions. The format is physicochemical. The text has this: WO2000038523 (Huntsman, US6500784, US6653257, EP1139761) discloses an amphoteric surfactant with the structure RCONH(CH2)n N^+R^12CH2COO- wherein R1 is alkyl or hydroxyl alkyl group with C1 to C4 and n = 2 - 4, and discloses a betaine with the structure R R^12N^+CH2COO- wherein R1 is alkyl or hydroxyl alkyl group with C1 to C4. The amphoterics disclosed there mainly functioned as a co-surfactant to solubilize a ether carboxylate in to concentrated glyphosate systems. In the context of the document, there was no mention of bioefficacy of betaines or other amphoteric surfactants by themselves. […] However, without proper testing of individual surfactant, it is not possible to determine whether the effect seen in the mixture of three surfactants comes from the claimed surfactant or the other two surfactants. Moreover, no actual bioefficacy data and especially no data are provided on the degree of "overall kill" provided in the absence of surfactants and in the presence of surfactants; without such data it is not possible to determine whether or not the claimed alkyl amido betaine was effective in enhancing herbicidal activity of glyphosate under the conditions of the test reported. This patent requires Na ion to be < 0.035% for the glyphosate formulation to be stable. Moreover, it used only IPA-glyphosate as examples. It is only recently known that many soluble surfactants in IPA-glyphosate are not soluble in concentrated K or NH4 glyphosate formulations. […] Since stearyl dimethylamidopropyl betaine itself had poor solubility in concentrated potassium glyphosate system, it is expected that the solubility of stearyl dimethylamidopropyl betaine plus ether carboxylate would be even worst in the concentrated potassium glyphosate system. Therefore, the claimed formulation in claim 1 in the document may not be stable, that is not useful, in a concentrated K glyphosate system.
US 20050170965 also indicates the aqueous glyphosate formulation is stable on storage. However, it is only recently known that many stable surfactants in IPA-glyphosate are not soluble in concentrated K or NH4 glyphosate formulations. Tests indicate that a composition of 360 g ae/l di-ammonium glyphosate could not dissolve 5.4% coco dimethyl betaine and a composition of 480 g ae/l potassium glyphosate could not dissolve 5.4% coco dimethylamidopropyl betaine. Since coco dimethyl betaine and coco dimethylamidopropyl betaine had poor solubility in concentrated potassium and di-ammonium glyphosate systems, it is expected that the claimed formulation in claim 16 of the document may not be stable in concentrated K or NH4 glyphosate systems. […]

The test system of series [3] is morning glory; wheat. As to the kind of experiment: Green house trial of glyphosate formulations, % Control (Example 3). The format is in vivo. To be noted: 930, 465 and 233 g ae/ha; 28 DAT; compared with glyphosate formulation without surfactant; result in words (FIGS. 9-10). The source says: Glyphosate formulation containing oleylamphopolycarboxy glycinate (Na salt) was compared in a green house trial with glyphosate formulation containing tallowamine-10EO (as positive control) and glyphosate alone in terms of % Control. Three glyphosate rates were used, 930 g ae/ha, 465 gae/ha, and 233 g ae/ha.
The results are plotted in FIGS. 9-10.

Series [4] deals with morning glory (IPOHE, a broad leaf week) and winter wheat (TRZAW, a narrow leaf grass). As to the kind of experiment: Greenhouse spray of concentrated glyphosate samples, % control at 28 DAT (Example 2). To be noted: glyphosate : surfactant 13:1, 489 and 978 g ae/H, result in words (FIGS. 7-8). The format is in vivo. How it is done: Table. 3 Studied glyphosate formulations using various surfactants
The concentrated glyphosate samples were diluted to two glyphosate rates and sprayed in a green house so that the final glyphosate rates of the spray solutions were 489 and 978 g ae/H. Three samples at two rates equals six treatments that were sprayed on each of two species, morning glory (IPOHE, a broad leaf week) and winter wheat (TRZAW, a narrow leaf grass). […]
Higher ratio means lower surfactant concentration. A ratio of 13:1 means the sample, at the same glyphosate concentration, has 4.3 times less surfactant than a sample with a ratio of 3:1.
Sample A (glyphosate with added tallowamine-15EO) served as a positive control. Sample B containing only glyphosate without added surfactant served as a negative control.
FIGS. 7-8 illustrates the % control results at 28 DAT.

On to tallowamine-15EO, for which the control to wheat entry in series [1] is recorded as “excellent control”.
For the compound coco dimethyl betaine, in series [2] (in a composition of 360 g ae/l di-ammonium glyphosate), the surfactant solubility is listed as below 5.4%.
Consider coco dimethylamidopropyl betaine, for which the results for the surfactant solubility in series [2] (in a composition of 360 g ae/l potassium glyphosate) and in series [2] (in a composition of 480 g ae/l potassium glyphosate) were below 80 g/L and below 5.4%, respectively.
On to “oleylamphopolycarboxy glycinate (Na salt)”, for which the glyphosate efficacy entry in series [3] was “enhanced glyphosate efficacy”.
Turning to “Ethoxylated cocoamine (6EO) betaine [cocoamine-6EO betaine]”, in series [1], the control to wheat entry is given as “excellent control”.
With `CCCCCCCCCCCCCCCCCC(=O)NCCC[N+](C)(C)CC(=O)[O-]` [stearyl dimethylamidopropyl betaine], in series [2] (in a composition of 51.3% potassium glyphosate), the surfactant solubility is listed as below 1.8%.
For tallow diamine trimethyl di-betaine, the glyphosate bioefficacy entry in series [4] is listed as “enhanced glyphosate bioefficacy even at very low rate”.
